The supplement of paper PMC4862054

System: Hs578T
Assay: normalised response (% of control), CellTox Green; higher = less cell death (100 = DMSO, 0 = benzethonium chloride kill control)
Details: incubation time: 72 h
Method in brief: (§1)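 Each entry is the normalised signal at a single concentration within a series. The series comprised 5 concentrations in 10-fold steps over a compound-specific 10,000-fold range, placed in 384-well plates into which breast cancer cell lines were seeded as 20 µl suspension and incubated 72 h. CellTox Green (485/520 nm) fluorescence and then CellTiter-Glo luminescence were read, with signals normalised per plate to 0.1 % DMSO (100) and a positive kill control (0).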

Structure (SMILES)	normalised response
Oc1ncc(N(CCCl)CCCl)c(O)n1 [Uracil mustard] (100 nM)	111%
C[C@H]1C[C@@H]2[C@H]([C@@H](O)C[C@@]3(C)[C@H]2CC[C@]3(O)C(=O)CO)[C@@]2(C)C=CC(=O)C=C12 [Methylprednisolone] (100 nM)	89%

System: CAL-148
Assay: as above
Details: incubation time: 72 h
Method in brief: as §1

Structure (SMILES)	normalised response
CCc1cncnc1N1CCN(Cc2nc3ccc(C(F)(F)F)cc3[nH]2)CC1 (100 nM)	108%
COc1cc2nccc(Oc3ccc(NC(=O)Nc4cc(C)on4)c(Cl)c3)c2cc1OC [Tivozanib] (100 nM)	102%
O=C(O)C(=O)O.[NH-][C@@H]1CCCC[C@H]1[NH-].[Pt+2] [Oxaliplatin] (100 nM)	61.1%
CC1=C(/C=C/C(C)=C/C=C/C(C)=C/C(=O)O)C(C)(C)CCC1 [Tretinoin] (100 nM)	95.3%
Oc1ncc(N(CCCl)CCCl)c(O)n1 [Uracil mustard] (100 nM)	103%
COc1cc2c(NC3CCN(C(C)C)CC3)nc(C3CCCCC3)nc2cc1OCCCN1CCCC1 [UNC0638] (100 nM)	96.8%
COc1cc([C@@H]2c3cc4c(cc3[C@@H](O[C@@H]3O[C@@H]5CO[C@@H](c6cccs6)O[C@H]5[C@H](O)[C@H]3O)[C@H]3COC(=O)[C@H]23)OCO4)cc(OC)c1O [Teniposide] (100 nM)	36.3%
CC[C@H](C)C(=O)O[C@H]1C[C@H](O)C=C2C=C[C@H](C)[C@H](CC[C@@H](O)C[C@@H](O)CC(=O)O)[C@H]21 [Pravastatin] (100 nM)	88.8%
C[C@H]1C[C@@H]2[C@H]([C@@H](O)C[C@@]3(C)[C@H]2CC[C@]3(O)C(=O)CO)[C@@]2(C)C=CC(=O)C=C12 [Methylprednisolone] (100 nM)	107%

System: MDA-MB-231
Assay: as above
Details: incubation time: 72 h
Method in brief: as §1

Structure (SMILES)	normalised response
CCc1cncnc1N1CCN(Cc2nc3ccc(C(F)(F)F)cc3[nH]2)CC1 (100 nM)	105%
COc1cc2nccc(Oc3ccc(NC(=O)Nc4cc(C)on4)c(Cl)c3)c2cc1OC [Tivozanib] (100 nM)	94.9%
O=C(O)C(=O)O.[NH-][C@@H]1CCCC[C@H]1[NH-].[Pt+2] [Oxaliplatin] (100 nM)	89.6%
CC1=C(/C=C/C(C)=C/C=C/C(C)=C/C(=O)O)C(C)(C)CCC1 [Tretinoin] (100 nM)	117%
Oc1ncc(N(CCCl)CCCl)c(O)n1 [Uracil mustard] (100 nM)	118%
COc1cc2c(NC3CCN(C(C)C)CC3)nc(C3CCCCC3)nc2cc1OCCCN1CCCC1 [UNC0638] (100 nM)	102%
COc1cc([C@@H]2c3cc4c(cc3[C@@H](O[C@@H]3O[C@@H]5CO[C@@H](c6cccs6)O[C@H]5[C@H](O)[C@H]3O)[C@H]3COC(=O)[C@H]23)OCO4)cc(OC)c1O [Teniposide] (100 nM)	103%
CC[C@H](C)C(=O)O[C@H]1C[C@H](O)C=C2C=C[C@H](C)[C@H](CC[C@@H](O)C[C@@H](O)CC(=O)O)[C@H]21 [Pravastatin] (100 nM)	102%
C[C@H]1C[C@@H]2[C@H]([C@@H](O)C[C@@]3(C)[C@H]2CC[C@]3(O)C(=O)CO)[C@@]2(C)C=CC(=O)C=C12 [Methylprednisolone] (100 nM)	140%

System: MDA-MB-468
Assay: as above
Details: incubation time: 72 h
Method in brief: as §1

Structure (SMILES)	normalised response
CCc1cncnc1N1CCN(Cc2nc3ccc(C(F)(F)F)cc3[nH]2)CC1 (100 nM)	108%
COc1cc2nccc(Oc3ccc(NC(=O)Nc4cc(C)on4)c(Cl)c3)c2cc1OC [Tivozanib] (100 nM)	110%
O=C(O)C(=O)O.[NH-][C@@H]1CCCC[C@H]1[NH-].[Pt+2] [Oxaliplatin] (100 nM)	110%
CC1=C(/C=C/C(C)=C/C=C/C(C)=C/C(=O)O)C(C)(C)CCC1 [Tretinoin] (100 nM)	159%
Oc1ncc(N(CCCl)CCCl)c(O)n1 [Uracil mustard] (100 nM)	154%
COc1cc2c(NC3CCN(C(C)C)CC3)nc(C3CCCCC3)nc2cc1OCCCN1CCCC1 [UNC0638] (100 nM)	119%
COc1cc([C@@H]2c3cc4c(cc3[C@@H](O[C@@H]3O[C@@H]5CO[C@@H](c6cccs6)O[C@H]5[C@H](O)[C@H]3O)[C@H]3COC(=O)[C@H]23)OCO4)cc(OC)c1O [Teniposide] (100 nM)	54.9%
CC[C@H](C)C(=O)O[C@H]1C[C@H](O)C=C2C=C[C@H](C)[C@H](CC[C@@H](O)C[C@@H](O)CC(=O)O)[C@H]21 [Pravastatin] (100 nM)	107%
C[C@H]1C[C@@H]2[C@H]([C@@H](O)C[C@@]3(C)[C@H]2CC[C@]3(O)C(=O)CO)[C@@]2(C)C=CC(=O)C=C12 [Methylprednisolone] (100 nM)	169%

System: HCC1937
Assay: as above
Details: incubation time: 72 h
Method in brief: as §1

Structure (SMILES)	normalised response
COc1cc2nccc(Oc3ccc(NC(=O)Nc4cc(C)on4)c(Cl)c3)c2cc1OC [Tivozanib] (100 nM)	117%
O=C(O)C(=O)O.[NH-][C@@H]1CCCC[C@H]1[NH-].[Pt+2] [Oxaliplatin] (100 nM)	79.4%
CC1=C(/C=C/C(C)=C/C=C/C(C)=C/C(=O)O)C(C)(C)CCC1 [Tretinoin] (100 nM)	92.8%
Oc1ncc(N(CCCl)CCCl)c(O)n1 [Uracil mustard] (100 nM)	88%
CC[C@H](C)C(=O)O[C@H]1C[C@H](O)C=C2C=C[C@H](C)[C@H](CC[C@@H](O)C[C@@H](O)CC(=O)O)[C@H]21 [Pravastatin] (100 nM)	95.9%
C[C@H]1C[C@@H]2[C@H]([C@@H](O)C[C@@]3(C)[C@H]2CC[C@]3(O)C(=O)CO)[C@@]2(C)C=CC(=O)C=C12 [Methylprednisolone] (100 nM)	115%

System: MCF-10A
Assay: as above
Details: incubation time: 72 h
Method in brief: as §1

Structure (SMILES)	normalised response
CCc1cncnc1N1CCN(Cc2nc3ccc(C(F)(F)F)cc3[nH]2)CC1 (100 nM)	86.4%
COc1cc2nccc(Oc3ccc(NC(=O)Nc4cc(C)on4)c(Cl)c3)c2cc1OC [Tivozanib] (100 nM)	96.3%
O=C(O)C(=O)O.[NH-][C@@H]1CCCC[C@H]1[NH-].[Pt+2] [Oxaliplatin] (100 nM)	70%
CC1=C(/C=C/C(C)=C/C=C/C(C)=C/C(=O)O)C(C)(C)CCC1 [Tretinoin] (100 nM)	105%
Oc1ncc(N(CCCl)CCCl)c(O)n1 [Uracil mustard] (100 nM)	114%
